# In US20090042878A1, “THIENOPYRIMIDYLAMINES AS MODULATORS OF THE EP2 RECEPTOR” (priority 2007, published 2009):
# What was measured:
# cumulus-oocyte complexes = assay: cumulus expansion assay in vitro; type: cell-based, mice; details: competing with natural EP2 receptor agonist PGE2
# Experimental: Folliculogenesis is induced in immature female mice at an age of 14-18 days by a single dose (intraperitoneal) of 10 I.U. of PMSG (Pregnant Mare Serum Gonadotropin; Sigma G-4877, Lot 68H0909). 47-50 hours after the injection, the ovaries are removed and the cumulus-oocyte complexes are removed. The cumulus complex is not yet expanded at this stage.
# The cumulus-oocyte complexes are then incubated with prostaglandin E2 (PGE2) (1 μM), vehicle control (ethanol) or test substances for 20-24 hours. Medium: alpha-MEM medium with 0.1 mM IBMX, pyruvates (0.23 mM) glutamines (2 mM), pen/strep 100 IU/ml pen. and 100 μg/ml strep. and HSA (8 mg/ml). Cumulus expansion is then established through the division into four stages (according to Vanderhyden et al. Dev Biol. 1990 August; 140(2):307-317).
# [1] = biological target: T1, human prostaglandin E2 (subtype EP2) receptor (Homo sapiens, UniProt P43116); assay: cAMP antagonism test (HTRF cAMP detection, PGE2 stimulation); type: cell-based; details: in presence of PGE2
# T1 construct: host or cells: cells in a cell culture plate
# Experimental: (§1) The binding of PGE2 to the EP2 subtype of the human PGE2 receptor induces activation of membrane-associated adenylate cyclases and leads to the formation of cAMP. In the presence of the phosphodiesterase inhibitor IBMX, cAMP which has accumulated due to this stimulation and been released by cell lysis is employed in a competitive detection method. In this assay, the cAMP in the lysate competes with cAMP-XL665 for binding of an Eu cryptate-labelled anti-cAMP antibody.
# (§2) The two signals are measured in a suitable measuring instrument with a time lag, i.e. after the background fluorescence has declined.
# (§3) The substance solutions (0.75 μl) introduced into an assay plate and 30% DMSO are dissolved in 16 μl of a KRSB+IBMX stimulation solution (1× Krebs-Ringer Bicarbonate Buffer; Sigma-Aldrich #K-4002; including 750 μM 3-isobutyl-1-methylxanthine Sigma-Aldrich #I-7018), and then 15 μl thereof are transferred into a media-free cell culture plate which has been washed with KRSB shortly beforehand.
# After preincubation at room temperature (RT) for 30 minutes, 5 μl of a 4×PGE2 solution (11 nM) are added, and incubation is carried out in the presence of the agonist at RT for a further 60 min (volume: ˜20 μl) before the reaction is then stopped by adding 5 μl of lysis buffer and incubated at RT for a further 20 min (volume: ˜25 μl). The cell lysate is then transferred into a measuring plate and measured in accordance with the manufacturer's information (cyclic AMP kit Cisbio International #62AMPPEC).
# [2] = biological target: T1, human prostaglandin E2 (subtype EP2) receptor; assay: cellular agonism test (cAMP); type: cell-based
# Experimental: as §1, §2, §3
# After incubation at room temperature (RT; volume: ˜15 μl) for 60 minutes, the reaction is then stopped by adding 5 μl of lysis buffer and incubated at RT for a further 20 min (volume: ˜20 μl). The cell lysate is then transferred into a measuring plate and measured in accordance with the manufacturer's instructions (cyclic AMP kit Cisbio International #62AMPPEC).
# T1 sequence (P43116 whole entry): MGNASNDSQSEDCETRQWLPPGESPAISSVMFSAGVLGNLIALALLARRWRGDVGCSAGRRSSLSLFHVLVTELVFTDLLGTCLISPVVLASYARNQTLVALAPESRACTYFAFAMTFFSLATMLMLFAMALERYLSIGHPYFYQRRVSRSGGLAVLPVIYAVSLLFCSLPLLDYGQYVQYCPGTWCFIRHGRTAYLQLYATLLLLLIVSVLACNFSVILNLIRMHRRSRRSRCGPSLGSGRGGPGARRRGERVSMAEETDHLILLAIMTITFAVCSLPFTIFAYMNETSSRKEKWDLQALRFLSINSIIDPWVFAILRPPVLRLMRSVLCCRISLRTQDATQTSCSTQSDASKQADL
SMILES,IC50 [1] [µM],also measured
"CC(C)Oc1ccc2c(=O)c3cc(C(=O)O)ccc3oc2c1 [AH 6809, reference compound]",,suppression of cumulus expansion (cumulus-oocyte complexes): approx. 30%
"Oc1ccc(CCNc2ncnc3cc(-c4ccccc4)sc23)cc1 [Example 9, 4-[2-(6-Phenylthieno[3,2-d]pyrimidin-4-ylamino)ethyl]phenol]",,suppression of cumulus expansion (cumulus-oocyte complexes; 10 μM): 45%
"c1cnc2ccc(-c3cc4ncnc(NCc5ccc6c(c5)OCO6)c4s3)cc2c1 [Example 57, Benzo[1,3]dioxol-5-ylmethyl-(6-quinolin-6-yl-thieno[3,2-d]pyrimidin-4-yl)amine]",0.61,
"CC(=O)Nc1cccc(-c2cc3ncnc(NCc4ccc5c(c4)OCO5)c3s2)c1 [Example 69, N-(3-{4-[(Benzo[1,3]dioxol-5-ylmethyl)amino]thieno[3,2-d]pyrimidin-6-yl}phenyl)acetamide]",0.46,effect in the cellular agonism test [2]: no inhibition
"COc1ccc(CNc2ncnc3cc(-c4cccc(NC(C)=O)c4)sc23)cc1 [Example 90, N-{3-[4-(4-Methoxybenzylamino)thieno[3,2-d]pyrimidin-6-yl]phenyl}acetamide]",0.31,
